# According to ChEMBL document CHEMBL5303573, “Mapping human microbiome drug metabolism by gut bacteria and their genes” (Nature, 2019):
# Tests used:
# [1] = The drug is tested on Escherichia coli strain: BW25113 for biotransformation. The drug concentrations were measured before and after a 12-h incubation by liquid-chromatography-coupled mass spectrometry (LC–MS); settings: 2 µM
# [2] = bifidobacterium adolescentis, 12 h, 2 µM
# Description: The drug is tested on Bifidobacterium adolescentis strain: ATCC 15703 for biotransformation. The drug concentrations were measured before and after a 12-h incubation by liquid-chromatography-coupled mass spectrometry (LC–MS)
# [3] = The drug is tested on Eubacterium hallii strain: DSM3353 for biotransformation. The drug concentrations were measured before and after a 12-h incubation by liquid-chromatography-coupled mass spectrometry (LC–MS); settings: anaerobutyricum hallii, 2 µM
# [4] = The drug is tested on Bacteroides fragilis strain: HMW610 for biotransformation. The drug concentrations were measured before and after a 12-h incubation by liquid-chromatography-coupled mass spectrometry (LC–MS); settings: 2 µM
# [5] = The drug is tested on Bacteroides pectinophilus strain: ATCC43243 for biotransformation. The drug concentrations were measured before and after a 12-h incubation by liquid-chromatography-coupled mass spectrometry (LC–MS); settings: 2 µM
# [6] = The drug is tested on Bacteroides caccae strain: ATCC43185 for biotransformation. The drug concentrations were measured before and after a 12-h incubation by liquid-chromatography-coupled mass spectrometry (LC–MS); settings: 2 µM
# [7] = The drug is tested on Collinsella intestinalis strain: DSM13280 for biotransformation. The drug concentrations were measured before and after a 12-h incubation by liquid-chromatography-coupled mass spectrometry (LC–MS); settings: 2 µM
# [8] = The drug is tested on Bifidobacterium longum subsp. Infantis strain: CCUG52486 for biotransformation. The drug concentrations were measured before and after a 12-h incubation by liquid-chromatography-coupled mass spectrometry (LC–MS); settings: 2 µM
# [9] = The drug is tested on Clostridium scindens strain: ATCC35704 for biotransformation. The drug concentrations were measured before and after a 12-h incubation by liquid-chromatography-coupled mass spectrometry (LC–MS); settings: 2 µM
# [10] = bacteroides thetaiotaomicron, 12 h, 2 µM
# Description: The drug is tested on Bacteroides thetaiotaomicron strain: VPI-5482 for biotransformation. The drug concentrations were measured before and after a 12-h incubation by liquid-chromatography-coupled mass spectrometry (LC–MS)
# [11] = parabacteroides distasonis, 12 h, 2 µM
# Description: The drug is tested on Parabacteroides distasonis strain: ATCC8503 for biotransformation. The drug concentrations were measured before and after a 12-h incubation by liquid-chromatography-coupled mass spectrometry (LC–MS)
# [12] = The drug is tested on Bifidobacterium breve strain: DSM20213 for biotransformation. The drug concentrations were measured before and after a 12-h incubation by liquid-chromatography-coupled mass spectrometry (LC–MS); settings: 2 µM
# [13] = bacteroides intestinalis, 12 h, 2 µM
# Description: The drug is tested on Bacteroides intestinalis strain: DSM17393 for biotransformation. The drug concentrations were measured before and after a 12-h incubation by liquid-chromatography-coupled mass spectrometry (LC–MS)
# [14] = bacteroides stercoris, 12 h, 2 µM
# Description: The drug is tested on Bacteroides stercoris strain: ATCC43183 for biotransformation. The drug concentrations were measured before and after a 12-h incubation by liquid-chromatography-coupled mass spectrometry (LC–MS)
# [15] = The drug is tested on Enterobacter cancerogenus strain: ATCC35316 for biotransformation. The drug concentrations were measured before and after a 12-h incubation by liquid-chromatography-coupled mass spectrometry (LC–MS); settings: 2 µM
# [16] = bacteroides thetaiotaomicron, 12 h, 2 µM; remark: listed apart in the source
# Description: The drug is tested on Bacteroides thetaiotaomicron strain: 3731 for biotransformation. The drug concentrations were measured before and after a 12-h incubation by liquid-chromatography-coupled mass spectrometry (LC–MS)
# [17] = The drug is tested on Odoribacter splanchnicus strain: fecal isolate for biotransformation. The drug concentrations were measured before and after a 12-h incubation by liquid-chromatography-coupled mass spectrometry (LC–MS); settings: 2 µM
# [18] = The drug is tested on Bifidobacterium ruminantium strain: fecal isolate for biotransformation. The drug concentrations were measured before and after a 12-h incubation by liquid-chromatography-coupled mass spectrometry (LC–MS); settings: 2 µM
# [19] = limosilactobacillus reuteri cf48-3a, 12 h, 2 µM
# Description: The drug is tested on Lactobacillus reuteri CF48-3A strain: BEI HM-102 for biotransformation. The drug concentrations were measured before and after a 12-h incubation by liquid-chromatography-coupled mass spectrometry (LC–MS)
Bacterial Biotransformation [2],Bacterial Biotransformation [3],Bacterial Biotransformation [4],Bacterial Biotransformation [5],Bacterial Biotransformation [6],Bacterial Biotransformation [7],Bacterial Biotransformation [8],Bacterial Biotransformation [9],Bacterial Biotransformation [10],Bacterial Biotransformation [11],Bacterial Biotransformation [12],Bacterial Biotransformation [13],Bacterial Biotransformation [14],Bacterial Biotransformation [15],Bacterial Biotransformation [16],Bacterial Biotransformation [17],Bacterial Biotransformation [18],Bacterial Biotransformation [19],SMILES,Bacterial Biotransformation [1]
Compound NOT metabolized,Compound NOT metabolized,Compound NOT metabolized,Compound NOT metabolized,Compound NOT metabolized,Compound NOT metabolized,Compound NOT metabolized,Compound NOT metabolized,Compound NOT metabolized,Compound NOT metabolized,Compound NOT metabolized,Compound NOT metabolized,,,,,,,CCN(CC)CCNC(=O)c1ccc(NC(C)=O)cc1 [ACECAINIDE],Compound NOT metabolized
Compound NOT metabolized,Compound NOT metabolized,,Compound NOT metabolized,,Compound NOT metabolized,,Compound NOT metabolized,Compound NOT metabolized,Compound NOT metabolized,Compound NOT metabolized,Compound NOT metabolized,Compound NOT metabolized,Compound NOT metabolized,Compound NOT metabolized,Compound metabolized,,,O=C1CN2Cc3c(ccc(Cl)c3Cl)N=C2N1 [ANAGRELIDE],
Compound NOT metabolized,Compound NOT metabolized,Compound NOT metabolized,Compound NOT metabolized,Compound metabolized,,Compound NOT metabolized,Compound NOT metabolized,Compound metabolized,,Compound NOT metabolized,Compound NOT metabolized,Compound metabolized,Compound NOT metabolized,Compound NOT metabolized,Compound metabolized,Compound metabolized,Compound NOT metabolized,CC(C)(C#N)c1cc(Cn2cncn2)cc(C(C)(C)C#N)c1 [ANASTROZOLE],
Compound NOT metabolized,Compound NOT metabolized,Compound NOT metabolized,,Compound NOT metabolized,Compound NOT metabolized,Compound NOT metabolized,Compound NOT metabolized,Compound NOT metabolized,,Compound NOT metabolized,Compound NOT metabolized,Compound NOT metabolized,,Compound NOT metabolized,Compound NOT metabolized,Compound NOT metabolized,,CC(C)NCC(O)COc1ccc(COCCOC(C)C)cc1.CC(C)NCC(O)COc1ccc(COCCOC(C)C)cc1.O=C(O)/C=C/C(=O)O (centres undefined) [BISOPROLOL FUMARATE],
,Compound NOT metabolized,Compound metabolized,Compound metabolized,Compound NOT metabolized,,Compound NOT metabolized,Compound NOT metabolized,Compound metabolized,Compound metabolized,Compound NOT metabolized,Compound metabolized,Compound metabolized,Compound NOT metabolized,Compound metabolized,,Compound NOT metabolized,Compound NOT metabolized,O=C(O)COCCN1CCN(C(c2ccccc2)c2ccc(Cl)cc2)CC1 (centres undefined) [CETIRIZINE],
Compound NOT metabolized,Compound NOT metabolized,Compound NOT metabolized,Compound NOT metabolized,Compound NOT metabolized,Compound NOT metabolized,Compound NOT metabolized,Compound NOT metabolized,Compound NOT metabolized,Compound NOT metabolized,Compound NOT metabolized,Compound NOT metabolized,Compound NOT metabolized,Compound NOT metabolized,Compound NOT metabolized,Compound NOT metabolized,Compound NOT metabolized,Compound NOT metabolized,Clc1ccc(Cn2c(CN3CCCC3)nc3ccccc32)cc1 [CLEMIZOLE],
Compound metabolized,Compound NOT metabolized,Compound metabolized,Compound metabolized,,Compound NOT metabolized,Compound metabolized,,Compound metabolized,Compound metabolized,Compound metabolized,Compound metabolized,Compound metabolized,,Compound metabolized,Compound metabolized,,,CC(=O)SCC(Cc1ccccc1)C(=O)NCC(=O)OCc1ccccc1 (centres undefined) [RACECADOTRIL],Compound NOT metabolized

SMILES,Bacterial Biotransformation [2],Bacterial Biotransformation [3],Bacterial Biotransformation [4],Bacterial Biotransformation [5],Bacterial Biotransformation [6],Bacterial Biotransformation [7],Bacterial Biotransformation [8],Bacterial Biotransformation [9],Bacterial Biotransformation [10],Bacterial Biotransformation [11],Bacterial Biotransformation [12],Bacterial Biotransformation [13],Bacterial Biotransformation [14],Bacterial Biotransformation [15],Bacterial Biotransformation [16],Bacterial Biotransformation [17],Bacterial Biotransformation [18],Bacterial Biotransformation [19],Bacterial Biotransformation [1]
C[N+]12CCC(CC1)C(OC(=O)C(O)(c1ccccc1)c1ccccc1)C2.[Br-] (centres undefined) [CLIDINIUM BROMIDE],Compound NOT metabolized,Compound NOT metabolized,Compound NOT metabolized,,Compound NOT metabolized,Compound NOT metabolized,Compound NOT metabolized,Compound NOT metabolized,Compound NOT metabolized,Compound NOT metabolized,Compound NOT metabolized,Compound NOT metabolized,Compound NOT metabolized,,Compound NOT metabolized,,,,Compound NOT metabolized
COc1cc(NC(C)CCCN)c2ncccc2c1.O=P(O)(O)O.O=P(O)(O)O (centres undefined) [PRIMAQUINE PHOSPHATE],Compound NOT metabolized,Compound NOT metabolized,,Compound metabolized,Compound NOT metabolized,Compound metabolized,Compound metabolized,,,Compound metabolized,Compound metabolized,,Compound NOT metabolized,,,,Compound metabolized,Compound NOT metabolized,Compound metabolized
